Reference: the NIST ThermoML archive (doi:10.1016/j.jct.2005.04.018)
± gives the expanded uncertainty stated by the source.

Settings: Liquid, Vibrating tube method

CCCCCC[n+]1ccn(C)c1.O=S(=O)([N-]S(=O)(=O)C(F)(F)F)C(F)(F)F
mass density (313.15 K, 10020 kPa): 1364.45 ± 0.93 kg/m3 | mass density (313.15 K, 14980 kPa): 1368.01 ± 0.95 kg/m3 | mass density (313.15 K, 19750 kPa): 1371.36 ± 0.98 kg/m3 | mass density (313.15 K, 25860 kPa): 1375.57 ± 1 kg/m3 | mass density (313.15 K, 31480 kPa): 1379.34 ± 1.1 kg/m3 | mass density (313.15 K, 37770 kPa): 1383.47 ± 1.1 kg/m3 | mass density (313.15 K, 44170 kPa): 1387.6 ± 1.2 kg/m3 | mass density (313.15 K, 50750 kPa): 1391.76 ± 1.2 kg/m3 | mass density (313.15 K, 59590 kPa): 1397.25 ± 1.4 kg/m3 | mass density (318.15 K, 100 kPa): 1352.32 ± 0.89 kg/m3 | mass density (318.15 K, 1830 kPa): 1353.62 ± 0.89 kg/m3 | mass density (318.15 K, 10020 kPa): 1359.84 ± 0.92 kg/m3 | mass density (318.15 K, 14980 kPa): 1363.45 ± 0.95 kg/m3 | mass density (318.15 K, 25860 kPa): 1371.1 ± 1 kg/m3 | mass density (318.15 K, 31480 kPa): 1374.91 ± 1.1 kg/m3 | mass density (318.15 K, 37770 kPa): 1379.09 ± 1.1 kg/m3 | mass density (318.15 K, 44170 kPa): 1383.28 ± 1.2 kg/m3 | mass density (318.15 K, 50750 kPa): 1387.51 ± 1.2 kg/m3 | mass density (323.15 K, 100 kPa): 1348.05 ± 0.88 kg/m3 | mass density (323.15 K, 1830 kPa): 1349.36 ± 0.89 kg/m3 | mass density (323.15 K, 10020 kPa): 1355.55 ± 0.92 kg/m3 | mass density (323.15 K, 14980 kPa): 1359.13 ± 0.94 kg/m3 | mass density (323.15 K, 19750 kPa): 1362.5 ± 1 kg/m3 | mass density (323.15 K, 25860 kPa): 1366.73 ± 1 kg/m3 | mass density (323.15 K, 31480 kPa): 1370.56 ± 1.1 kg/m3 | mass density (323.15 K, 37770 kPa): 1374.72 ± 1.1 kg/m3 | mass density (323.15 K, 44170 kPa): 1378.88 ± 1.2 kg/m3 | mass density (323.15 K, 50750 kPa): 1383.17 ± 1.2 kg/m3 | mass density (325.15 K, 100 kPa): 1346.34 ± 0.88 kg/m3 | mass density (325.15 K, 1830 kPa): 1347.7 ± 0.89 kg/m3 | mass density (325.15 K, 10020 kPa): 1354.03 ± 0.92 kg/m3 | mass density (325.15 K, 14980 kPa): 1357.71 ± 0.94 kg/m3 | mass density (325.15 K, 19750 kPa): 1361.18 ± 0.97 kg/m3 | mass density (325.15 K, 25860 kPa): 1365.48 ± 1 kg/m3 | mass density (325.15 K, 31480 kPa): 1369.35 ± 1.1 kg/m3 | mass density (325.15 K, 37770 kPa): 1373.57 ± 1.1 kg/m3 | mass density (325.15 K, 44170 kPa): 1377.76 ± 1.2 kg/m3 | mass density (325.15 K, 50750 kPa): 1382.02 ± 1.2 kg/m3 | mass density (327.15 K, 100 kPa): 1344.39 ± 0.88 kg/m3 | mass density (327.15 K, 1830 kPa): 1345.74 ± 0.89 kg/m3 | mass density (327.15 K, 10020 kPa): 1352.05 ± 0.92 kg/m3 | mass density (327.15 K, 14980 kPa): 1355.75 ± 0.94 kg/m3 | mass density (327.15 K, 19750 kPa): 1359.21 ± 0.97 kg/m3 | mass density (327.15 K, 25860 kPa): 1363.58 ± 1 kg/m3 | mass density (327.15 K, 31480 kPa): 1367.53 ± 1.1 kg/m3 | mass density (327.15 K, 37770 kPa): 1371.82 ± 1.1 kg/m3 | mass density (327.15 K, 44170 kPa): 1376.09 ± 1.2 kg/m3 | mass density (327.15 K, 50750 kPa): 1380.39 ± 1.2 kg/m3 | mass density (329.15 K, 100 kPa): 1342.33 ± 0.88 kg/m3 | mass density (329.15 K, 1830 kPa): 1343.71 ± 0.88 kg/m3 | mass density (329.15 K, 10020 kPa): 1350.14 ± 0.91 kg/m3 | mass density (329.15 K, 14980 kPa): 1353.87 ± 0.94 kg/m3 | mass density (329.15 K, 19750 kPa): 1357.38 ± 0.96 kg/m3 | mass density (329.15 K, 25860 kPa): 1361.77 ± 1 kg/m3 | mass density (329.15 K, 31480 kPa): 1365.68 ± 1.1 kg/m3 | mass density (329.15 K, 37770 kPa): 1369.99 ± 1.1 kg/m3 | mass density (329.15 K, 44170 kPa): 1374.26 ± 1.2 kg/m3 | mass density (329.15 K, 50750 kPa): 1378.59 ± 1.2 kg/m3 | mass density (331.15 K, 100 kPa): 1340.37 ± 0.88 kg/m3 | mass density (331.15 K, 1830 kPa): 1341.75 ± 0.88 kg/m3 | mass density (331.15 K, 10020 kPa): 1348.2 ± 0.9 kg/m3 | mass density (331.15 K, 14980 kPa): 1351.91 ± 0.94 kg/m3 | mass density (331.15 K, 19750 kPa): 1355.44 ± 0.96 kg/m3 | mass density (331.15 K, 25860 kPa): 1359.84 ± 1 kg/m3 | mass density (331.15 K, 31480 kPa): 1363.79 ± 1.1 kg/m3 | mass density (331.15 K, 37770 kPa): 1368.1 ± 1.1 kg/m3 | mass density (331.15 K, 44170 kPa): 1372.39 ± 1.2 kg/m3 | mass density (331.15 K, 50750 kPa): 1376.72 ± 1.2 kg/m3 | mass density (333.15 K, 100 kPa): 1338.24 ± 0.88 kg/m3 | mass density (333.15 K, 1830 kPa): 1339.65 ± 0.88 kg/m3 | mass density (333.15 K, 10020 kPa): 1346.2 ± 0.91 kg/m3 | mass density (333.15 K, 14980 kPa): 1349.99 ± 0.93 kg/m3 | mass density (333.15 K, 19750 kPa): 1353.57 ± 0.96 kg/m3 | mass density (333.15 K, 25860 kPa): 1358.01 ± 1 kg/m3 | mass density (333.15 K, 31480 kPa): 1361.98 ± 1 kg/m3 | mass density (333.15 K, 37770 kPa): 1366.34 ± 1.1 kg/m3 | mass density (333.15 K, 44170 kPa): 1370.63 ± 1.2 kg/m3 | mass density (333.15 K, 50750 kPa): 1374.95 ± 1.2 kg/m3
